Assays:
RARs and RXRs [1] = test: binding to baculovirus-derived RARs and RXRs (overall finding in words); conditions: RARα,β,γ and RXRα,β,γ; for binding to RARs and RXRs (in words): saturation binding
Source text: Exp. Stat. Bull., No. 155 (1987).
[…]. […] […].

RARs and RXRs [2] = conditions: Heyman et al., Cell, 68:397 (1992); cited from earlier work

Row | Compound | activity on the retinoid receptors (in words, per Table 1) (RARs and RXRs [1]) | binding to RARs and RXRs (in words) (RARs and RXRs [1]; listed as 9-cis retinoic acid) | binding to RARs and RXRs (in words) (RARs and RXRs [1]; listed as 9-cis-retinoic acid) | binding to and modulating gene expression via the RARs and RXRs (RARs and RXRs [2]) | binding to RARs and RXRs (in words) (RARs and RXRs [1])
1 | CC1=C(/C=C/C(C)=C\C=C\C(C)=C\C(=O)O)C(C)(C)CCC1 [9-cis RA, 9-cis retinoic acid] | active on all six known retinoid receptors | binds to the RARs and RXRs with high affinity in a saturable and specific manner | effectively binds to all six receptors | capable of binding to and modulating gene expression via the RARs and RXRs | 
2 | CC1=C(/C=C/C(C)=C/C=C/C(C)=C/C(=O)O)C(C)(C)CCC1 [ATRA, all-trans retinoic acid] | only active on RARα,β,γ |  |  |  | only binds to the RARs
